Test results published in patent EP1793006A2, “Nucleic acid ligands and improved methods for producing the same” (priority 1993, dated 1995).
Where a SMILES comes first, the peptide text is derived from it. The star is where a group is joined. pNA = O=[N+]([O-])c1ccc(N*)cc1; MeOSuc = COC(=O)CCC(=O)*

Key:
[1] = biological target: T1, Human neutrophil elastase (Homo sapiens, UniProt P08246); assay: Elastase inhibition assay with chromogenic tetrapeptide substrate; format: biochemical; settings: Lineweaver-Burk plot
T1 construct: purchased Athens Research and Technology, Athens, Georgia
T1 sequence (P08246 30-267): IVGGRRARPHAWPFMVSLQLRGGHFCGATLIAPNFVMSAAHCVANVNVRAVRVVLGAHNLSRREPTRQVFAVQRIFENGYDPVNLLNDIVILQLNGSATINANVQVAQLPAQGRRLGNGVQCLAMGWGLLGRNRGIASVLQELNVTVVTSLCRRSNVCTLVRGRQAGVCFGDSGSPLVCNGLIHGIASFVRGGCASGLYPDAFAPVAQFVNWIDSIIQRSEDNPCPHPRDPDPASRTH
Source text: Elastase inhibition assay. The assay for elastase inhibition is based on the use of a chromogenic tetrapeptide substrate. […] The rate of p-nitroanilide generation in the absence of inhibitor was used as the control.
Elastase Inhibition Assay. The assay for elastase inhibition is based on the use of a chromogenic tetrapeptide substrate. […] The rate of p-nitroanilide generation in the absence of inhibitor was used as the negative control; the positive control contained the irreversible inhibitor N-methoxysuccinyl-Ala-Ala-Pro-Val-chloromethyl ketone. OD values were plotted against time, and the slope used to determine the rate of enzyme activity.

T7 RNA polymerase = biological target: T2, T7 RNA polymerase (Escherichia phage T7, UniProt P00573); assay: Incorporation of modified nucleotide triphosphates into RNA by T7 RNA polymerase transcription; format: biochemical; settings: for efficiency of transcription (incorporation) as compared to UTP: three hours, 2 mM ribonucleotide triphosphates, 100 nM double-stranded DNA template, 5 units/ul T7 RNA polymerase
T2 construct: purchased NEB
Method: Incorporation of 5-modified uridines into RNA. Four prototypic 5-modified uridines, 5-AA-UTP, 5-F-12-UTP, 5-Dig-11-UTP, and 5-Br-UTP (shown in Figure 2) were incorporated into RNA by the T7.RNA polymerase under standard transcription conditions (40 mM Tris-Cl, pH 8.0, 12 mM MgCl2, 5 mM DTT, 1 mM spermidine, 0.002% Triton X-100, 4% PEG, 37°C). Autoradiogram of a 15% denaturing polyacrylamide gel showing products of transcription done with UTP, 5-AA-UTP, and 5-Br-UTP is shown in Figure 3. The efficiency of transcription was estimated from the total amounts of ^32P-radiolabelled transcript produced after three hours of incubation with 2 mM ribonucleotide triphosphates, 100 nM double-stranded DNA template, and 5 units/ul of T7 RNA polymerase (NEB). 5-AA-UTP, 5-F-12-UTP, 5-Dig-11-UTP, and 5-Br-UTP were incorporated with 28%, 51%, 23%, and 50% efficiency, respectively, as compared to UTP. No transcription was detectable when UTP was omitted from the transcription mixture.
The 2'-amino group of 2'-amino,2'-deoxyuridine is trifluoroacetylated (Imazawa et al. (1979) J. Org. Chem. 44:2039) in 82% yield. This intermediate is phosphorylated at the 5'-position (Ludwig and Eckstein (1989) J. Org. Chem. 54:631) in 61% yield. The 5-iodo derivative of the 2'-amino,2'-deoxyuridine 5'-triphosphate was prepared by mercuration (Dale et al. (1975) Biochemistry 14:2447) in a single step.
RGD-UTP transcription and purification. RGD-UTP was used in a T7 RNA polymerase reaction by direct substitution for normal UTP, and gave yields that were at least 50% of those obtainable with UTP. The concentration of RGD-UTP and other NTPs was 1 mM; the DNA template contained 5' and 3' fixed regions flanking a 30 base pair random sequence. The RNA transcript was purified by adsorption onto an anion exchange column (Mono Q)in a phosphate buffer containing 6 M urea and 50% formamide, and eluted with a gradient to 1 M NaCl (Figure 16). RGD-RNA eluted as one major peak from the column at a position in the gradient slightly ahead of the elution position of an equivalent RNA transcript made with normal UTP, consistent with the altered charge and perhaps altered conformation of the derivatized RNA.

TCT8-4 RNA = assay: Competition binding of xanthine derivatives, equilibrium filtration; settings: for Ki: 1 µM 14C-theophylline, 3.3 µM TCT8-4 RNA, read-out: Kc; for Kc(c)/Kc(t): competitor relative to theophylline
Method: An attractive feature of a small molecule-RNA interaction is the opportunity to readily investigate quantitatively the relative contribution of various constituents of the small molecule to the overall binding. Competition binding experiments were conducted with a variety of xanthine derivatives and related compounds. In these experiments, the effect of competitor added at various concentrations on the ^14C-theophylline-TCT8-4 RNA interaction was measured. Of particular interest were the roles of CH3 residues at the 1, 3, and 7 positions; these were assessed both individually and in combination. In addition, 1,3-dimethyluric acid probes the 8-position, as it contains a keto oxygen there relative to theophylline, and hypoxanthine, lacking the 2-position keto oxygen of xanthine, permit assessment of this constituent.
Equilibrium filtration assays were performed by the addition of various concentrations of the potential competitor to 1 µM [^14C]-theophylline and 3.3 µM TCT8-4 RNA (SEQ ID NO:249) in a 150 µl reaction mixture containing 100 mM HEPES buffer. Each reaction was performed as described in Example 23. Competition data were fit using a standard competition equation and fitting procedure (Gill et al. (1991) J. Mol. Biol. 220:307) assuming a 1:1 stoichiometry of competitor to RNA. […] From such data a competitor dissociation constant (Kc) was obtained. Under the condition where theophylline and the specific competitor bind to the same site, Kc = Kd.

[2] = biological target: Human neutrophil elastase (human) (UniProt P08246); assay: elastase inhibition assay with chromogenic substrate, Lineweaver-Burk plot (Figure 22)

T2 sequence (P00573 whole entry): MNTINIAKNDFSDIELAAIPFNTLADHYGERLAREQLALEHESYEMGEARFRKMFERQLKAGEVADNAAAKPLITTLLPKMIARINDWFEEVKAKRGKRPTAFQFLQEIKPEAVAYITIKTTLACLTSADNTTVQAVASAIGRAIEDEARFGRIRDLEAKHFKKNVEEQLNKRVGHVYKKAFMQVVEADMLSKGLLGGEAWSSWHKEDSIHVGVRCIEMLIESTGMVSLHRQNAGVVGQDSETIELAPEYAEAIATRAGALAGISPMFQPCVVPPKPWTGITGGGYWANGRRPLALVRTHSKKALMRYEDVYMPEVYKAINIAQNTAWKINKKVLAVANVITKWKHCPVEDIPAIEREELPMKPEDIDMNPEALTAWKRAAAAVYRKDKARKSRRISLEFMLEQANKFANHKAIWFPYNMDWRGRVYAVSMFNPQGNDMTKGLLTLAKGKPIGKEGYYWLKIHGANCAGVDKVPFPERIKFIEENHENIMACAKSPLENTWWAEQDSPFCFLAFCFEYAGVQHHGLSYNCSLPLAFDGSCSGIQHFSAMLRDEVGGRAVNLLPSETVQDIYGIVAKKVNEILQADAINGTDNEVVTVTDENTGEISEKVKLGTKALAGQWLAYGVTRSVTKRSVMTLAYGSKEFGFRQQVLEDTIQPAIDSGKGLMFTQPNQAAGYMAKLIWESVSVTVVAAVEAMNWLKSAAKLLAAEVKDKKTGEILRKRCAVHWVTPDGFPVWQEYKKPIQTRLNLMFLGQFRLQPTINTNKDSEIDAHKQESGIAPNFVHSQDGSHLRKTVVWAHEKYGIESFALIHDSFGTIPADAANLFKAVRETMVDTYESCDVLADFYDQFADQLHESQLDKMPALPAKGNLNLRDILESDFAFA

Row | Compound | Ki (TCT8-4 RNA) | Kc(c)/Kc(t) (TCT8-4 RNA) | also measured
1 | COC(=O)CCC(=O)N[C@@H](C)C(=O)N[C@@H](C)C(=O)N1CCC[C@H]1C(=O)N[C@H](C(=O)Nc1ccc([N+](=O)[O-])cc1)C(C)C [substrate, N-methoxysuccinyl-Ala-Ala-Pro-Val-p-nitroanilide] (MeOSuc-AAPV-pNA) |  |  | Km [1]: 160 µM
2 | N-methoxysuccinyl Ala-Ala-Pro-Val |  |  | Ki [1]: 920 µM
3 | 5-fluorescein-12-uridine triphosphate [5-F-12-UTP] |  |  | efficiency of transcription (incorporation) as compared to UTP (T7 RNA polymerase): 51%
4 | 1-carboxypropyl theophylline [CP-Theophylline] | 0.93 ± 0.2 µM | 2.9 | 
5 | Cn1c(=O)c2c(ncn2C)n(C)c1=O [Caffeine, 1,3,7-trimethylxanthine] | 3500 ± 1500 µM | 10900 | recognition by TCT8-4 RNA (TCT8-4 RNA): extremely poor competitor
6 | N[C@@H]1[C@H](O)[C@@H](COP(=O)(O)OP(=O)(O)OP(=O)(O)O)O[C@H]1n1ccc(=O)[nH]c1=O [2'-amino,2'-deoxyuridine 5'-triphosphate] |  |  | substrate for T7 RNA polymerase (T7 RNA polymerase): substrates for T7 RNA polymerase
7 | Cn1c(=O)[nH]c2nc[nH]c2c1=O [1-methylxanthine] | 9 ± 0.3 µM | 28 | 
8 | Cn1cnc2[nH]c(=O)[nH]c(=O)c21 [7-methylxanthine] | > 500 µM | > 1500 | competition, fold less efficient than xanthine (TCT8-4 RNA): at least 1500 fold
9 | 5-digoxygenin-11-uridine triphosphate [5-Dig-11-UTP] |  |  | efficiency of transcription (incorporation) as compared to UTP (T7 RNA polymerase): 23%
10 | Cn1c(=O)[nH]c(=O)c2[nH]cnc21 [3-methylxanthine] | 2 ± 0.7 µM | 6.3 | competition, fold better relative to xanthine (TCT8-4 RNA): approximately 5 fold
11 | O=c1[nH]c(=O)c2[nH]cnc2[nH]1 [Xanthine] | 8.5 ± 0.4 µM | 27 | competition, fold less effective than theophylline (TCT8-4 RNA): about 23 fold
12 | Cn1c(=O)c2[nH]cnc2n(C)c1=O [Theophylline, 1,3-dimethylxanthine] | 0.32 ± 0.13 µM | 1 | Kd (TCT8-4 RNA; read-out: Kd for theophylline to RNA used for the competition fit): 450 nM
13 | N[C@@H]1[C@H](O)[C@@H](COP(=O)(O)OP(=O)(O)OP(=O)(O)O)O[C@H]1n1cc(I)c(=O)[nH]c1=O [5-iodo,2'-amino,2'-deoxyuridine 5'-triphosphate] |  |  | substrate for T7 RNA polymerase (T7 RNA polymerase): substrates for T7 RNA polymerase
14 | N-methoxysuccinyl Ala-Ala-Pro-Val (SEQ ID NO:44) (peptide) |  |  | Ki [2]: 920 µM
15 | NCC=Cc1cn(C2OC(COP(=O)(O)OP(=O)(O)OP(=O)(O)O)C(O)C2O)c(=O)[nH]c1=O (stereo not shown) [5-AA-UTP, 5-(3-aminoallyl)uridine triphosphate] |  |  | efficiency of transcription (incorporation) as compared to UTP (T7 RNA polymerase): 28%
16 | O=c1[nH]cnc2nc[nH]c12 [Hypoxanthine] | 49 ± 10 µM | 153 | competition, fold less efficient than xanthine (TCT8-4 RNA): approximately 5 fold
17 | O=c1[nH]c(=O)n([C@@H]2O[C@H](COP(=O)(O)OP(=O)(O)OP(=O)(O)O)[C@@H](O)[C@H]2O)cc1Br [5-Br-UTP, 5-bromouridine triphosphate] |  |  | efficiency of transcription (incorporation) as compared to UTP (T7 RNA polymerase): 50%
18 | Cn1cnc2c1c(=O)[nH]c(=O)n2C [3,7-dimethylxanthine] | > 500 µM | > 1500 | recognition by TCT8-4 RNA (TCT8-4 RNA): recognized poorly
